Data published in patent US20220273590A1, “COMPOUNDS FOR PREVENTION AND TREATMENT OF POST-OPERATIVE COGNITIVE DYSFUNCTION” (ABREXA PHARMACEUTICALS, INC., priority 2019, published 2022).

Key:
animal model of POCD [1] = test: Open Field test after abdominal surgery; assay type: in vivo, Wistar rats
Protocol: Male Wistar rats (˜350 g) were randomly divided into 4 experimental groups; non-surgery; control abdominal surgery; surgery+acute J147 treatment (7 mg/rat by gavage, 4-5 hours before surgery); surgery+chronic J147 (500 mg/kg food, 1 week before surgery until the end of the study). Timed blood samples were collected. Days 9-11 post surgery, general behavior (Open field: OF) and cognitive performance (Novel Object/Novel Location Recognition: NOR/NLR; Morris Water Maze: MWM) were tested. Day 14, rats were sacrificed and blood and brain tissue were collected for further analyses. (Neuro)inflammation was examined by circulating cytokine levels and microglia activation in the brain. Abdominal surgery was performed as described previously by Hovens et al., 2014. Rats were anaesthetized using sevoflurane (±2.5% in air/O2=2/1) and received 0.01 mg/kg buprenorphine s.c. A heating blanket was used to preserve body temperature. An incision was made along the linea alba and the intestines were exteriorised. The upper mesenteric artery was isolated from surrounding tissue and clamped for a period of 30 minutes during which the intestines and surgical wound were covered with gauze soaked in saline, to prevent dehydration. During this time the animals were equipped with an indwelling jugular vein catheter to mimic insertion of a venous line in patients and allow timed blood sampling. For that, an incision was made at the subclavical region, the jugular vein was freed from surrounding tissue and a catheter was introduced and advanced into the vena cava, just above the right atrium. The other end of the catheter was guided subcutaneously to the head, and fixated on the skull with dental cement. The catheter was filled with PVP dissolved in heparin solution and closed with a plastic plug. After subsequent removal of the mesenteric artery clamp, the intestines were gently placed back and the abdominal wall and skin were closed separately by sutures. Clamping and reperfusion were visually verified by absence or presence of pulsation in the mesenteric artery distal to the clamp site. From induction to recovery, the procedure takes approximately 60 minutes. Post-operatively, the animals were allowed to recover and subsequently were housed individually. Rats were weighed daily at the last hour of the dark period. Maximal weight loss within the first 5 days post-surgery was taken as measure of experienced severity of surgery. Behavioral tests were performed in the dark (active) period of the rats. […] The movement as well as location of the rat was recorded as time in corner, walls and center, number of visits in the center and the distance walked, and analyzed with Ethovision (Noldus, the Netherlands). Rearing behavior was analyzed by Eline. […]

animal model of POCD [2] = test: Novel Object and Novel Location Recognition (NOR/NLR) after abdominal surgery; assay type: in vivo, Wistar rats
Protocol: Male Wistar rats (˜350 g) were randomly divided into 4 experimental groups; non-surgery; control abdominal surgery; surgery+acute J147 treatment (7 mg/rat by gavage, 4-5 hours before surgery); surgery+chronic J147 (500 mg/kg food, 1 week before surgery until the end of the study). Timed blood samples were collected. Days 9-11 post surgery, general behavior (Open field: OF) and cognitive performance (Novel Object/Novel Location Recognition: NOR/NLR; Morris Water Maze: MWM) were tested. Day 14, rats were sacrificed and blood and brain tissue were collected for further analyses. (Neuro)inflammation was examined by circulating cytokine levels and microglia activation in the brain. Abdominal surgery was performed as described previously by Hovens et al., 2014. Rats were anaesthetized using sevoflurane (±2.5% in air/O2=2/1) and received 0.01 mg/kg buprenorphine s.c. A heating blanket was used to preserve body temperature. An incision was made along the linea alba and the intestines were exteriorised. The upper mesenteric artery was isolated from surrounding tissue and clamped for a period of 30 minutes during which the intestines and surgical wound were covered with gauze soaked in saline, to prevent dehydration. During this time the animals were equipped with an indwelling jugular vein catheter to mimic insertion of a venous line in patients and allow timed blood sampling. For that, an incision was made at the subclavical region, the jugular vein was freed from surrounding tissue and a catheter was introduced and advanced into the vena cava, just above the right atrium. The other end of the catheter was guided subcutaneously to the head, and fixated on the skull with dental cement. The catheter was filled with PVP dissolved in heparin solution and closed with a plastic plug. After subsequent removal of the mesenteric artery clamp, the intestines were gently placed back and the abdominal wall and skin were closed separately by sutures. Clamping and reperfusion were visually verified by absence or presence of pulsation in the mesenteric artery distal to the clamp site. From induction to recovery, the procedure takes approximately 60 minutes. Post-operatively, the animals were allowed to recover and subsequently were housed individually. Rats were weighed daily at the last hour of the dark period. Maximal weight loss within the first 5 days post-surgery was taken as measure of experienced severity of surgery. Behavioral tests were performed in the dark (active) period of the rats. The lights were turned on at 9:00 p.m. and off at 9:00 a.m. […] General exploratory behavior and anxiety was tested in the Open field (OF) test; spatial learning, spatial memory and cognitive flexibility in the Morris Water Maze (MWM); spatial working memory in the novel location recognition test (NL); the novel object recognition test (NO) for working memory on object recognition. The Novel Object and Novel Location Recognition were tested in random order in one procedure to assess spatial short term memory and object memory. For this test, an open square box (50×50×40 cm) with 2 transparent and two grey walls was used. Objects used in the test were selected from a pilot study, investigating the preferences of rats for different objects. Rats were habituated to the box for 3 minutes, the day before the test. The test consisted of four phases, each phase took 3 minutes. Between each phase there was a break of 45 seconds in which the rat remained in the test box. The first phase was performed in an empty box, in the second phase two identical objects were placed in both corners at the nearest end of the box. In this phase, the rat was allowed to explore both objects. After this exploration phase either a novel object test or novel location test was performed. Before the start of each phase both objects were removed from the box and cleaned with 70% ethanol. […]

In the case of `COc1cccc(/C=N/N(C(=O)C(F)(F)F)c2ccc(C)cc2C)c1` [J147], the “Open field: effect of treatment on time in the center area or distance walked” value (animal model of POCD [1]; acute or chronic J147, surgery rats) is reported as “no significant effects”, the “Open field: rearing behavior” value (animal model of POCD [1]; surgery + chronic J147) is reported as “significantly more rearing behavior” and the “Open field: visits to the center area” value (animal model of POCD [1]; surgery + chronic J147) is reported as “significantly more often”. For the same compound, the “Open field: time in the center” value (animal model of POCD [1]; surgery + chronic J147, versus the other groups) was “tend to spend more time in the center”, the “NOR score (novel object preference)” value (animal model of POCD [2]; Surgery + acute J147, n = 12, random = 50%) was 60 ± 5% and the “Baseline exploration (% time)” value (animal model of POCD [2]; Surgery + acute J147, n = 15, mean ± SEM) was 23.6 ± 2.3 % time. The “NLR score (novel location preference)” value (animal model of POCD [2]; Surgery + acute J147, n = 15, random = 50%, significantly different from random) was 61 ± 4%, the “NLR score (novel location preference)” value (animal model of POCD [2]; Surgery + chronic J147, n = 11, random = 50%, significantly different from random) was 70 ± 6% and the “NOR score (novel object preference)” value (animal model of POCD [2]; Surgery + chronic J147, n = 12, random = 50%, significantly different from random) was 58 ± 4%. The “Baseline exploration (% time)” value (animal model of POCD [2]; Surgery + chronic J147, n = 15, mean ± SEM) was 16.8 ± 2.5 % time, the “difference between the groups in preference for the novel or relocated object” value (animal model of POCD [2]; acute and chronic J147 versus control groups) was “No significant differences” and the “NLR test performance versus random” value (animal model of POCD [2]; both treated groups (acute and chronic J147)) was “performed above random”. The “NLR performance compared with other groups” value (animal model of POCD [2]; chronically treated rats) was “performed best in NLR” and the “NOR, effect of treatment” value (animal model of POCD [2]; chronically treated rats) was “not affected”.
